Experiment [1] concerns the target T1, Estrogen receptor beta (Homo sapiens, UniProt Q92731).
Experiment [2] deals with T2, Estrogen receptor (Homo sapiens, UniProt P03372).
T2 sequence (P03372 whole entry): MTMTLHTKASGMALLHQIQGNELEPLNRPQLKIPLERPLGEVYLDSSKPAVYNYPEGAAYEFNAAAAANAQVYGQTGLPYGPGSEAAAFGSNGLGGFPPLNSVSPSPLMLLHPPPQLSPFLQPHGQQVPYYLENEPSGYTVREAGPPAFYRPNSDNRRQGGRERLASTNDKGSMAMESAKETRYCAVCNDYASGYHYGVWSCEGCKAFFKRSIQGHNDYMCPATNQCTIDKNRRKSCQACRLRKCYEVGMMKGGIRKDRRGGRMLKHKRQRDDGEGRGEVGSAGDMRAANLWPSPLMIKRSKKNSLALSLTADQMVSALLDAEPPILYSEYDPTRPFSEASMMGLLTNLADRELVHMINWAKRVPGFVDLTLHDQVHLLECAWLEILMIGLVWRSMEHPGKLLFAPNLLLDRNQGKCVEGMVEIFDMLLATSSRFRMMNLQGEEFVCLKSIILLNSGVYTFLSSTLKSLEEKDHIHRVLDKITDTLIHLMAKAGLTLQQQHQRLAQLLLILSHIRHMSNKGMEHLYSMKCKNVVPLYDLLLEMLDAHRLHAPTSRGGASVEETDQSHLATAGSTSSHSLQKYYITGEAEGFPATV

For experiment [3], the target named is T2, Estrogen receptor. Description: Displacement of [3H]17-beta-estradiol from Estrogen receptor alpha of bacterial lysate by scintillation proximity assay (SPA) at 10e-5 M; Inactive. In general terms: In a radioligand displacement assay an active substance lowers the binding of a labelled ligand.
Experiment [4] concerns the target T1, Estrogen receptor beta. In words: Displacement of [3H]17-beta-estradiol from Estrogen receptor beta of bacterial lysate by scintillation proximity assay (SPA) at 10e-5 M; Inactive.

Structures are written as SMILES.

T1 sequence (Q92731 whole entry): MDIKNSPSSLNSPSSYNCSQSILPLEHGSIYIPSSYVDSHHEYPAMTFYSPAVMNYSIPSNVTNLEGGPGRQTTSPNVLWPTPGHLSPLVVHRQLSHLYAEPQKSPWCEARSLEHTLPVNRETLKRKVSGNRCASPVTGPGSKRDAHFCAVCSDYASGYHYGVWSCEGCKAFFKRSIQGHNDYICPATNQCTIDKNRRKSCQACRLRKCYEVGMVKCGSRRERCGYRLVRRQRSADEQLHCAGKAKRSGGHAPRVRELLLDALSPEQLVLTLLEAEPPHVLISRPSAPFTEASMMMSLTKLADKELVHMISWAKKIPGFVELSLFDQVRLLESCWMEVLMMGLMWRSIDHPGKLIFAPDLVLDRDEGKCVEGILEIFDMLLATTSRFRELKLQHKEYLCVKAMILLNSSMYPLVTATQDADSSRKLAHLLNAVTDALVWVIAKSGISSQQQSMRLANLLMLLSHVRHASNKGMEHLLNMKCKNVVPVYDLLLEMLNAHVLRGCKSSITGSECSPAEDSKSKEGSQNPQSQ

For `Cc1cc(-c2cc(-c3ccccc3)cc(N3CCC(Cc4ccccc4)CC3)n2)ccc1O`, the Ki is 110 nM in experiment [1] and 20 nM in experiment [2].

Regarding `CCCN(Cc1ccccn1)c1cc(-c2ccccc2)cc(-c2ccc(O)cc2)n1`, the results for the inhibition constant (Ki) in experiment [1] and in experiment [2] were 710 nM and 180 nM, respectively.

For the compound `Cc1cc(-c2cc(-c3ccccc3)cc(N(C)CCc3ccccc3)n2)ccc1O`, the Ki in experiment [1] was determined as 680 nM; in experiment [2] it was 160 nM.

Consider `Cc1cc(-c2cc(-c3ccccc3)cc(N(C)CCN(C)C)n2)ccc1O`, for which the Ki result in experiment [3] and in experiment [4] was “Not Active” in each case.

Take `CN(CCc1ccccc1)c1cc(-c2ccc(O)cc2)cc(-c2ccc(O)cc2)n1`: the Ki in experiment [1] and in experiment [2] was over 3000 nM in each case.

As to `Cc1cc(-c2cc(-c3ccccc3)cc(N(C)Cc3ccccc3)n2)ccc1O`, the inhibitory constant (Ki) in experiment [1] came to 1120 nM; in experiment [2] it was 380 nM.

As to `Cc1cc(-c2cc(-c3ccccc3)cc(N(C)CCc3ccccn3)n2)ccc1O`, the Ki in experiment [1] was over 3000 nM; in experiment [2], 1260 nM.

Take `Cc1cc(-c2cc(-c3ccccc3)cc(N(C)Cc3cccc4ccccc34)n2)ccc1O`: the figures for the Ki in experiment [1] and in experiment [2] were 1410 nM and 450 nM, respectively.

As for `Cc1cc(-c2cc(-c3ccccc3)cc(N(CCc3ccccc3)Cc3ccccc3)n2)ccc1O`, the figures for the Ki in experiment [1] and in experiment [2] were 250 nM and 130 nM, respectively.

Take `CCOCCN(CCOCC)c1cc(-c2ccccc2)cc(-c2ccc(O)c(C)c2)n1`: the Ki in experiment [1] was 1170 nM; in experiment [2], 2000 nM.

Consider `CCCN(Cc1ccccn1)c1cc(-c2ccccc2)cc(-c2ccc(O)c(C)c2)n1`, for which the values for the Ki in experiment [1] and in experiment [2] were 330 nM and 70 nM, respectively.

Turning to `Cc1cc(-c2cc(-c3ccccc3)cc(N(C)CC(C)C)n2)ccc1O`, the Ki in experiment [1] was determined as 660 nM; in experiment [2], 210 nM.

Consider `CC(C)CN(C)c1cc(-c2ccccc2)cc(-c2ccc(O)cc2)n1`, for which the results for the Ki in experiment [1] and in experiment [2] were 1260 nM and 620 nM, respectively.

Consider `CN(CCc1ccccc1)c1cc(-c2ccccc2)cc(-c2ccc(O)cc2)n1`, for which the Ki in experiment [1] is 1050 nM; in experiment [2], 490 nM.

Take `CCCN(Cc1ccccn1)c1cc(-c2ccccc2)cc(-c2ccc(O)cc2C)n1`: the Ki result in experiment [3] and in experiment [4] was “Not Active” throughout.

As for `CCCCN(C)c1cc(-c2ccccc2)cc(-c2ccc(O)c(C)c2)n1`, the Ki in experiment [1] stood at 790 nM; in experiment [2], 660 nM.

Turning to `Cc1ccccc1-c1cc(-c2ccc(O)cc2)nc(N(C)CCc2ccccc2)c1`, the inhibition constant Ki in experiment [1] was determined as 1100 nM; in experiment [2], 650 nM.

For `Cc1cc(-c2cc(-c3ccccc3)cc(N3CCCC3)n2)ccc1O`, the inhibition constant (Ki) result in experiment [3] and in experiment [4] was “Not Active” each time.

Consider `CCN(Cc1ccncc1)c1cc(-c2ccccc2)cc(-c2ccc(O)c(C)c2)n1`, for which the Ki in experiment [1] amounted to 1000 nM; in experiment [2] it was 830 nM.

Broadly, the Ki is a dissociation constant, usually derived from enzyme kinetics or from competition with a known ligand. A lower Ki goes with higher affinity.

The record behind these values is ChEMBL document CHEMBL1133877, “2-Amino-4,6-diarylpyridines as novel ligands for the estrogen receptor” (Bioorg Med Chem Lett, 2001).
